In PubChem BioAssay (NCI):
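Assay format: 96-well plates, 48-hour exposure. At the GI50, growth is halved. TGI: total growth inhibition.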

Tests used:
Assay in all cases: growth of human tumour cells (NCI), 48 h
IGROV1 ovarian = tested on: IGROV1 ovarian
PC-3 prostate = tested on: PC-3 prostate
OVCAR-8 ovarian = tested on: OVCAR-8 ovarian
NCI/ADR-RES ovarian = tested on: NCI/ADR-RES ovarian
NCI-H23 lung = tested on: NCI-H23 lung
SK-MEL-5 melanoma = tested on: SK-MEL-5 melanoma
HCT-15 colon = tested on: HCT-15 colon
MCF7 breast = tested on: MCF7 breast
OVCAR-4 ovarian = tested on: OVCAR-4 ovarian
K-562 leukemia = tested on: K-562 leukemia
MALME-3M melanoma = tested on: MALME-3M melanoma
HCC-2998 colon = tested on: HCC-2998 colon
RPMI-8226 leukemia = tested on: RPMI-8226 leukemia
RXF 393 renal = tested on: RXF 393 renal
HT29 colon = tested on: HT29 colon
SF-539 CNS = tested on: SF-539 CNS
DU-145 prostate = tested on: DU-145 prostate
SK-MEL-28 melanoma = tested on: SK-MEL-28 melanoma
SW-620 colon = tested on: SW-620 colon
SR leukemia = tested on: SR leukemia
OVCAR-3 ovarian = tested on: OVCAR-3 ovarian
SK-OV-3 ovarian = tested on: SK-OV-3 ovarian
NCI-H226 lung = tested on: NCI-H226 lung
LOX IMVI melanoma = tested on: LOX IMVI melanoma
OVCAR-5 ovarian = tested on: OVCAR-5 ovarian
NCI-H522 lung = tested on: NCI-H522 lung
UACC-257 melanoma = tested on: UACC-257 melanoma
KM12 colon = tested on: KM12 colon
HOP-92 NSCLC = tested on: HOP-92 NSCLC

Work on `O=C(/C=C/CN1CCCCC1)Nc1cc2c(Nc3ccc(F)c(Cl)c3F)ncnc2cc1OCCOC(F)F` yielded a GI50 (IGROV1 ovarian) of under 18.2 nM, a TGI (IGROV1 ovarian) of 815 nM and a GI50 (PC-3 prostate) of 1680 nM. For the same compound, the TGI (PC-3 prostate) was 8.43 µM, the GI50 (OVCAR-8 ovarian) was 805 nM and the TGI (OVCAR-8 ovarian) was 10.3 µM. For the same compound, the GI50 (NCI/ADR-RES ovarian) was 446 nM, the TGI (NCI/ADR-RES ovarian) was 3.82 µM and the GI50 (NCI-H23 lung) was 1670 nM. For the same compound, the TGI (NCI-H23 lung) was 6.99 µM, the GI50 (SK-MEL-5 melanoma) was 1540 nM and the TGI (SK-MEL-5 melanoma) was 3.07 µM. It also gave a GI50 (HCT-15 colon) of 633 nM, a TGI (HCT-15 colon) of 3.86 µM and a GI50 (MCF7 breast) of 1350 nM. For the same compound, the TGI (MCF7 breast) was 10.3 µM, the GI50 (OVCAR-4 ovarian) was 1230 nM and the TGI (OVCAR-4 ovarian) was 13 µM. The GI50 (K-562 leukemia) was 715 nM, the TGI (K-562 leukemia) was 8.12 µM and the GI50 (MALME-3M melanoma) was 1180 nM. For the same compound, the TGI (MALME-3M melanoma) was 2910 nM, the GI50 (HCC-2998 colon) was 1600 nM and the TGI (HCC-2998 colon) was 3.97 µM. The GI50 (RPMI-8226 leukemia) was 1010 nM, the TGI (RPMI-8226 leukemia) was 3.94 µM and the GI50 (RXF 393 renal) was 497 nM. It also gave a TGI (RXF 393 renal) of 2380 nM, a GI50 (HT29 colon) of 919 nM and a TGI (HT29 colon) of 5.77 µM. It also gave a GI50 (SF-539 CNS) of 1120 nM, a TGI (SF-539 CNS) of 3.56 µM and a GI50 (DU-145 prostate) of 265 nM. For the same compound, the TGI (DU-145 prostate) was 6.24 µM, the GI50 (SK-MEL-28 melanoma) was 2270 nM and the TGI (SK-MEL-28 melanoma) was 9.19 µM. For the same compound, the GI50 (SW-620 colon) was 1490 nM, the TGI (SW-620 colon) was 8.17 µM and the GI50 (SR leukemia) was 598 nM. The TGI (SR leukemia) was 4.24 µM, the GI50 (OVCAR-3 ovarian) was 284 nM and the TGI (OVCAR-3 ovarian) was 2550 nM. For the same compound, the GI50 (SK-OV-3 ovarian) was under 20.1 nM, the TGI (SK-OV-3 ovarian) was 263 nM and the GI50 (NCI-H226 lung) was 1480 nM. It also gave a TGI (NCI-H226 lung) of 5.73 µM, a GI50 (LOX IMVI melanoma) of 1220 nM and a TGI (LOX IMVI melanoma) of 2590 nM. For the same compound, the GI50 (OVCAR-5 ovarian) was 406 nM, the TGI (OVCAR-5 ovarian) was 13.6 µM and the GI50 (NCI-H522 lung) was 49.3 nM. For the same compound, the TGI (NCI-H522 lung) was 1800 nM, the GI50 (UACC-257 melanoma) was 1740 nM and the TGI (UACC-257 melanoma) was 5.64 µM. The GI50 (KM12 colon) was 2440 nM, the TGI (KM12 colon) was 9.01 µM and the GI50 (HOP-92 NSCLC) was 54.8 nM. It also gave a TGI (HOP-92 NSCLC) of 1120 nM.
